Data: PubChem BioAssay (NCI)
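A five-concentration, 48-hour dose response in 96-well plates underlies each endpoint, interpolated linearly between surrounding concentrations. GI50 marks 50% less growth. TGI marks complete inhibition of growth.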

What was measured:
Assay in all cases: growth of human tumour cells (NCI), 48 h
786-0 renal = test system: 786-0 renal
SN12C renal = test system: SN12C renal
HS 578T breast = test system: HS 578T breast
ACHN renal = test system: ACHN renal
M14 melanoma = test system: M14 melanoma
CCRF-CEM leukemia = test system: CCRF-CEM leukemia
SK-MEL-5 melanoma = test system: SK-MEL-5 melanoma
SF-295 CNS = test system: SF-295 CNS
HCT-15 colon = test system: HCT-15 colon
OVCAR-3 ovarian = test system: OVCAR-3 ovarian

Compound	GI50 (786-0 renal) [µM]	TGI (786-0 renal) [µM]	GI50 (SN12C renal) [µM]	TGI (SN12C renal) [µM]	GI50 (HS 578T breast) [µM]	TGI (HS 578T breast) [µM]	GI50 (ACHN renal) [µM]	TGI (ACHN renal) [µM]	GI50 (M14 melanoma) [µM]	TGI (M14 melanoma) [µM]	GI50 (CCRF-CEM leukemia) [µM]	TGI (CCRF-CEM leukemia) [µM]	GI50 (SK-MEL-5 melanoma) [µM]	TGI (SK-MEL-5 melanoma) [µM]	GI50 (SF-295 CNS) [µM]	TGI (SF-295 CNS) [µM]	GI50 (HCT-15 colon) [µM]	TGI (HCT-15 colon) [µM]	GI50 (OVCAR-3 ovarian) [µM]	TGI (OVCAR-3 ovarian) [µM]
O=C(/C=C/c1cccc(Oc2ccc(Cl)cc2)c1)c1ccccc1	19.9	43.6	28.4	78.4	109	628	16.9	31.7	53.1	241	31.6	384	36	127	60	196	18.7	44.6	21.1	42.8
CCN(CC)CCS(=O)(=O)CCNc1ccnc2cc(Cl)ccc12	2.84	19.9	3.25	> 100	4.07	> 100	1.49	29.8	2.53	9.33	0.663	> 38.6	3.79	10.4	8.38	> 64	2.33	> 38.1	1.47	15.3
Cc1cc2c(cc1C)[n+](=O)c(C(=O)/C=C/c1ccccc1[N+](=O)[O-])c(C)n2[O-]	–	68.4	–	> 100	–	> 77.2	–	66.9	–	> 100	–	> 100	–	> 100	–	64.6	–	> 100	–	> 97
C=CC(C)(O)CCC1C(=C)C(O)CC2C(C)(C)CCCC12C (stereo not given)	–	32.8	–	33	–	50.3	–	70.4	–	30	–	45.4	–	29.5	–	48	–	33.3	–	39.9
Cc1n(Cc2ccc3ccccc3n2)cc[n+]1Cc1ccc2ccccc2c1	4.36	18.2	0.518	11	1.18	9.72	9.46	46.4	1.13	10.7	1.07	11.5	0.533	1.61	1.47	7.62	20.4	> 75.9	0.515	5.1
Cc1nn2c(-c3nc4cc(Cl)c(Cl)cc4[nH]3)c(-c3ccc(F)cc3)nc2s1	1.75	3.33	7.92	> 100	2.78	> 29.6	1.7	5.25	5.94	> 100	> 100	> 100	5.86	> 100	4.92	> 42.8	> 100	> 100	3.26	11.1
Cc1ccc(NC(=O)c2ccc(NC3=C(Cl)C(=O)N(Cc4ccccc4)C3=O)cc2)cc1Cl	3.35	15.9	3.87	20.5	10.7	34.9	12.6	25.1	17.6	55.1	1.02	3.54	12	24.3	19.9	> 100	2.25	13.2	3.6	18.7
